Data set [1] is described as follows: CuAAC macrocyclisation of azide/terminal alkyne linear peptidomimetics to 1,4-triazole (CuI 2 eq, DIPEA 3 eq, Ar-degassed), then Boc removal (TMSCl/MeOH GP4; HCl/dioxane GP5 for A13w, J13w). The conditions noted are these: THF (reflux), 1.2 mM, 66.0 °C, 18.0 h, 2 steps.
A short description of data set [2]: RuAAC macrocyclisation of azide/terminal alkyne linear peptidomimetics to 1,5-triazole ([Cp*RuCl]4 0.1 eq, Ar-degassed), then Boc removal (TMSCl/MeOH GP4 or HCl/dioxane GP5). The conditions noted are these: toluene (reflux), 1.25 mM, 111.0 °C, 18.0 h, 2 steps.

Molecules are shown by their SMILES.

The compound `COC(=O)[C@@H]1CCCn2cc(nn2)CCC(=O)NCCC[C@H](NC(=O)OC(C)(C)C)C(=O)N1` [Boc-Orn(4-pentynoyl)-Orn(N3)-OMe] gave a ring closure, yield over several steps in data set [1] (from C#CCCC(=O)NCCC[C@H](NC(=O)OC(C)(C)C)C(=O)N[C@@H](CCCN=[N+]=[N-])C(=O)OC, 17-membered ring) of 85%.

Take `COC(=O)[C@@H]1CNC(=O)[C@H](Cc2ccccc2)n2cc(nn2)CCCC(=O)NCC[C@H](NC(=O)OC(C)(C)C)C(=O)N1` [Boc-Dab(5-hexynoyl)-Dap(N3-Phe)-OMe]: in data set [1] (from C#CCCCC(=O)NCC[C@H](NC(=O)OC(C)(C)C)C(=O)N[C@@H](CNC(=O)[C@H](Cc1ccccc1)N=[N+]=[N-])C(=O)OC, 18-membered ring), the ring closure, yield over several steps turned out to be 70%.

Compound `COC(=O)[C@@H]1CCCCNC(=O)[C@H](Cc2ccccc2)n2cc(nn2)CCCC(=O)NCCCC[C@H](NC(=O)OC(C)(C)C)C(=O)N1` [Boc-Lys(5-hexynoyl)-Lys(N3-Phe)-OMe] displayed a ring closure, yield over several steps in data set [1] (from C#CCCCC(=O)NCCCC[C@H](NC(=O)OC(C)(C)C)C(=O)N[C@@H](CCCCNC(=O)[C@H](Cc1ccccc1)N=[N+]=[N-])C(=O)OC, 23-membered ring) of 54%.

Compound `COC(=O)[C@@H]1CCCn2cc(nn2)CCC(=O)NCC[C@H](NC(=O)OC(C)(C)C)C(=O)N1` [Boc-Dab(4-pentynoyl)-Orn(N3)-OMe] came in with a ring closure, yield over several steps in data set [1] (from C#CCCC(=O)NCC[C@H](NC(=O)OC(C)(C)C)C(=O)N[C@@H](CCCN=[N+]=[N-])C(=O)OC, 16-membered ring) of 99%.

`COC(=O)[C@@H]1CCCCn2cc(nn2)CCCC(=O)NCCCC[C@H](NC(=O)OC(C)(C)C)C(=O)N1` [Boc-Lys(5-hexynoyl)-Lys(N3)-OMe] yielded a ring closure, yield over several steps in data set [1] (from C#CCCCC(=O)NCCCC[C@H](NC(=O)OC(C)(C)C)C(=O)N[C@@H](CCCCN=[N+]=[N-])C(=O)OC, 20-membered ring) of 98%.

For `COC(=O)[C@@H]1CCCCNC(=O)[C@H](Cc2ccccc2)n2cc(nn2)CCCC(=O)Nc2ccc(cc2)C[C@H](NC(=O)OC(C)(C)C)C(=O)N1` [Boc-Phe(4-NH-5-hexynoyl)-Lys(N3-Phe)-OMe], the ring closure, yield over several steps in data set [1] (from C#CCCCC(=O)Nc1ccc(C[C@H](NC(=O)OC(C)(C)C)C(=O)N[C@@H](CCCCNC(=O)[C@H](Cc2ccccc2)N=[N+]=[N-])C(=O)OC)cc1, 24-membered ring) stood at 11%.

For `COC(=O)[C@@H]1CCCCn2cc(nn2)CCCC(=O)NCC[C@H](NC(=O)OC(C)(C)C)C(=O)N1` [Boc-Dab(5-hexynoyl)-Lys(N3)-OMe], in data set [1] (from C#CCCCC(=O)NCC[C@H](NC(=O)OC(C)(C)C)C(=O)N[C@@H](CCCCN=[N+]=[N-])C(=O)OC, 18-membered ring), the ring closure, yield over several steps stood at 99%.

In turn, `COC(=O)[C@@H]1CCCCNC(=O)[C@H](Cc2ccccc2)n2cc(nn2)CCCC(=O)NC[C@H](NC(=O)OC(C)(C)C)C(=O)N1` [Boc-Dap(5-hexynoyl)-Lys(N3-Phe)-OMe] came in with a ring closure, yield over several steps in data set [1] (from C#CCCCC(=O)NC[C@H](NC(=O)OC(C)(C)C)C(=O)N[C@@H](CCCCNC(=O)[C@H](Cc1ccccc1)N=[N+]=[N-])C(=O)OC, 20-membered ring) of 99%.

With `COC(=O)[C@@H]1CCCn2cc(nn2)CNC(=O)NCC[C@H](NC(=O)OC(C)(C)C)C(=O)N1` [Boc-Dab(CONH-propargyl)-Orn(N3)-OMe], the ring closure, yield over several steps in data set [1] (from C#CCNC(=O)NCC[C@H](NC(=O)OC(C)(C)C)C(=O)N[C@@H](CCCN=[N+]=[N-])C(=O)OC, 16-membered ring) was determined as 29%.

In data set [1] (from C#CCCC(=O)NCCCC[C@H](NC(=O)OC(C)(C)C)C(=O)N[C@@H](CCCCN=[N+]=[N-])C(=O)OC, 19-membered ring), `COC(=O)[C@@H]1CCCCn2cc(nn2)CCC(=O)NCCCC[C@H](NC(=O)OC(C)(C)C)C(=O)N1` [Boc-Lys(4-pentynoyl)-Lys(N3)-OMe] displayed a ring closure, yield over several steps of 30%.

In data set [1] (from C#CCCC(=O)NCCC[C@H](NC(=O)OC(C)(C)C)C(=O)N[C@@H](CCCCN=[N+]=[N-])C(=O)OC, 18-membered ring), `COC(=O)[C@@H]1CCCCn2cc(nn2)CCC(=O)NCCC[C@H](NC(=O)OC(C)(C)C)C(=O)N1` [Boc-Orn(4-pentynoyl)-Lys(N3)-OMe] came in with a ring closure, yield over several steps of 93%.

The compound `COC(=O)[C@@H]1CCCCNC(=O)[C@H](Cc2ccccc2)n2cc(nn2)CNC(=O)NC[C@H](NC(=O)OC(C)(C)C)C(=O)N1` [Boc-Dap(CONH-propargyl)-Lys(N3-Phe)-OMe] gave a ring closure, yield over several steps in data set [1] (from C#CCNC(=O)NC[C@H](NC(=O)OC(C)(C)C)C(=O)N[C@@H](CCCCNC(=O)[C@H](Cc1ccccc1)N=[N+]=[N-])C(=O)OC, 19-membered ring) of 99%.

In data set [1] (from C#CCCCC(=O)NCC[C@H](NC(=O)OC(C)(C)C)C(=O)N[C@@H](CCCCNC(=O)[C@H](Cc1ccccc1)N=[N+]=[N-])C(=O)OC, 21-membered ring), `COC(=O)[C@@H]1CCCCNC(=O)[C@H](Cc2ccccc2)n2cc(nn2)CCCC(=O)NCC[C@H](NC(=O)OC(C)(C)C)C(=O)N1` [Boc-Dab(5-hexynoyl)-Lys(N3-Phe)-OMe] displayed a ring closure, yield over several steps of 88%.

Regarding `COC(=O)[C@@H]1CCCCNC(=O)[C@H](Cc2ccccc2)n2nncc2CCCC(=O)NCCCC[C@H](N)C(=O)N1` [Boc-Lys(5-hexynoyl)-Lys(N3-Phe)-OMe], in data set [2] (from C#CCCCC(=O)NCCCC[C@H](NC(=O)OC(C)(C)C)C(=O)N[C@@H](CCCCNC(=O)[C@H](Cc1ccccc1)N=[N+]=[N-])C(=O)OC, 22-membered ring), the ring closure, yield over several steps is 60%.

In the case of `COC(=O)[C@@H]1CCCCn2nncc2CNC(=O)NCC[C@H](N)C(=O)N1` [Boc-Dab(CONH-propargyl)-Lys(N3)-OMe], the ring closure, yield over several steps in data set [2] (from C#CCNC(=O)NCC[C@H](NC(=O)OC(C)(C)C)C(=O)N[C@@H](CCCCN=[N+]=[N-])C(=O)OC, 16-membered ring) turned out to be 99%.

For the compound `COC(=O)[C@@H]1CCCn2nncc2CNC(=O)NCC[C@H](N)C(=O)N1` [Boc-Dab(CONH-propargyl)-Orn(N3)-OMe], the ring closure, yield over several steps in data set [2] (from C#CCNC(=O)NCC[C@H](NC(=O)OC(C)(C)C)C(=O)N[C@@H](CCCN=[N+]=[N-])C(=O)OC, 15-membered ring) is 99%.

In the case of `COC(=O)[C@@H]1CCCCNC(=O)[C@H](Cc2ccccc2)n2nncc2CCC(=O)Nc2ccc(cc2)C[C@H](N)C(=O)N1` [Boc-Phe(4-NH-4-pentynoyl)-Lys(N3-Phe)-OMe], the ring closure, yield over several steps in data set [2] (from C#CCCC(=O)Nc1ccc(C[C@H](NC(=O)OC(C)(C)C)C(=O)N[C@@H](CCCCNC(=O)[C@H](Cc2ccccc2)N=[N+]=[N-])C(=O)OC)cc1, 22-membered ring) amounted to 57%.

On to `COC(=O)[C@@H]1Cc2ccc(cc2)-n2nncc2CNC(=O)NCC[C@H](N)C(=O)N1` [Boc-Dab(CONH-propargyl)-Phe(4-N3)-OMe], for which the ring closure, yield over several steps in data set [2] (from C#CCNC(=O)NCC[C@H](NC(=O)OC(C)(C)C)C(=O)N[C@@H](Cc1ccc(N=[N+]=[N-])cc1)C(=O)OC, 17-membered ring) worked out at 40%.

Consider `COC(=O)[C@@H]1CCCCNC(=O)[C@H](Cc2ccccc2)n2nncc2CCC(=O)NCCC[C@H](N)C(=O)N1` [Boc-Orn(4-pentynoyl)-Lys(N3-Phe)-OMe], for which the ring closure, yield over several steps in data set [2] (from C#CCCC(=O)NCCC[C@H](NC(=O)OC(C)(C)C)C(=O)N[C@@H](CCCCNC(=O)[C@H](Cc1ccccc1)N=[N+]=[N-])C(=O)OC, 20-membered ring) is 97%.

In turn, `COC(=O)[C@@H]1CCCCn2nncc2CCCC(=O)NCCCC[C@H](N)C(=O)N1` [Boc-Lys(5-hexynoyl)-Lys(N3)-OMe] registered a ring closure, yield over several steps in data set [2] (from C#CCCCC(=O)NCCCC[C@H](NC(=O)OC(C)(C)C)C(=O)N[C@@H](CCCCN=[N+]=[N-])C(=O)OC, 19-membered ring) of 65%.

Regarding `COC(=O)[C@@H]1CNC(=O)[C@H](Cc2ccccc2)n2nncc2CCC(=O)NCC[C@H](N)C(=O)N1` [Boc-Dab(4-pentynoyl)-Dap(N3-Phe)-OMe], the ring closure, yield over several steps in data set [2] (from C#CCCC(=O)NCC[C@H](NC(=O)OC(C)(C)C)C(=O)N[C@@H](CNC(=O)[C@H](Cc1ccccc1)N=[N+]=[N-])C(=O)OC, 16-membered ring) worked out at 60%.

In the case of `COC(=O)[C@@H]1CCCCn2nncc2CNC(=O)NCCCC[C@H](N)C(=O)N1` [Boc-Lys(CONH-propargyl)-Lys(N3)-OMe], the ring closure, yield over several steps in data set [2] (from C#CCNC(=O)NCCCC[C@H](NC(=O)OC(C)(C)C)C(=O)N[C@@H](CCCCN=[N+]=[N-])C(=O)OC, 18-membered ring) worked out at 99%.

Compound `COC(=O)[C@@H]1CCCCn2nncc2CNC(=O)NCCC[C@H](N)C(=O)N1` [Boc-Orn(CONH-propargyl)-Lys(N3)-OMe] came in with a ring closure, yield over several steps in data set [2] (from C#CCNC(=O)NCCC[C@H](NC(=O)OC(C)(C)C)C(=O)N[C@@H](CCCCN=[N+]=[N-])C(=O)OC, 17-membered ring) of 99%.

In data set [2] (from C#CCNC(=O)NCCC[C@H](NC(=O)OC(C)(C)C)C(=O)N[C@@H](CNC(=O)[C@H](Cc1ccccc1)N=[N+]=[N-])C(=O)OC, 17-membered ring), `COC(=O)[C@@H]1CNC(=O)[C@H](Cc2ccccc2)n2nncc2CNC(=O)NCCC[C@H](N)C(=O)N1` [Boc-Orn(CONH-propargyl)-Dap(N3-Phe)-OMe] gave a ring closure, yield over several steps of 86%.
